{
  "source": "ChEMBL document CHEMBL5150075",
  "about": "(J Med Chem, 2022)",
  "key": {"[1]": {"assay": "Stability in human liver microsomes assessed as half life incubated in presence of NADPH by LC-MS/MS analysis", "type": "ADME, Microsome"}, "MDA-MB-231": {"test_system": "MDA-MB-231", "assay": "cells", "conditions": "Homo sapiens, MDA-MB-231, 72 h"}, "[2]": {"assay": "Stability in rat liver microsomes assessed as half life incubated in presence of NADPH by LC-MS/MS analysis", "type": "ADME, Microsome"}, "DU-145 [3]": {"test_system": "DU-145", "assay": "Induction of apoptosis in human DU-145 cells assessed as late apoptotic cells at 0.1 uM incubated for 48 hrs by Annexin V-FITC/PI staining based flow cytometry analysis (reference value: 2.05%)", "type": "functional"}, "Tubulin (Homo sapiens) [4]": {"biological_target": "T1, Tubulin (Homo sapiens) (UniProt P68371+Q9H4B7+P0DPH7+P68366+Q13509+Q71U36+P04350+Q3ZCM7+P07437+P68363+Q9BQE3+Q6PEY2+Q13885+Q9BVA1+Q9BUF5)", "assay": "Inhibition of [3H]colchicine binding to tubulin (unknown origin) at 1 uM incubated for 2 hrs by TopCount scintillation counting method relative to control", "type": "protein-complex assay"}, "SW1990": {"test_system": "SW1990", "assay": "Antiproliferative activity against human SW1990 cells assessed as inhibition of cell growth incubated for 72 hrs by MTT assay", "type": "functional, cell-based", "conditions": "SW1990, 72 h"}, "HepG2": {"test_system": "HepG2", "assay": "cells", "conditions": "Homo sapiens, HepG2, 72 h"}, "DU-145 [5]": {"test_system": "DU-145", "assay": "Antiproliferative activity against human DU-145 cells assessed as inhibition of cell growth incubated for 48 hrs by real-time cell analysis", "type": "functional, cell-based", "conditions": "DU-145, 48 h"}, "[6]": {"assay": "Oral bioavailability in Kunming mouse at 20 mg/kg by LC-MS/MS analysis", "type": "ADME, organism-based", "conditions": "in vivo"}, "DU-145 [7]": {"test_system": "DU-145", "assay": "Induction of apoptosis in human DU-145 cells assessed as early apoptotic cells at 0.3 uM incubated for 48 hrs by Annexin V-FITC/PI staining based flow cytometry analysis (reference value: 1.97%)", "type": "functional"}, "[8]": {"assay": "Toxicity in C57BL/6 mouse implanted with mouse B16-F10 cells assessed as […] at 20 mg/kg, po administered once daily and measured twice a week for 14 days", "type": "organism-based", "conditions": "in vivo, 336 h, time 14 day"}, "Tubulin (Homo sapiens) [9]": {"biological_target": "T1, Tubulin (Homo sapiens)", "assay": "Disruption of microtubule network in human DU-145 cells assessed as cell shrinkage at 0.1 uM incubated for 16 hrs by Hoechst staining based confocal microscopy analysis"}, "DU-145 [10]": {"test_system": "DU-145", "assay": "Induction of G2/M phase cell cycle arrest in human DU-145 cells assessed as decrease in Cdc2 phosphorylation at T14/Y15 residue at 0.03 to 0.3 uM measured after 12 hrs by Western blot analysis", "type": "functional, cell-based", "conditions": "dose 0.03-0.3 µM"}, "NCI-H1299": {"test_system": "NCI-H1299", "assay": "Antiproliferative activity against human NCI-H1299 cells assessed as inhibition of cell growth incubated for 72 hrs by MTT assay", "type": "functional, cell-based", "conditions": "NCI-H1299, 72 h"}, "A549 [11]": {"test_system": "A549", "assay": "Antitumor activity against paclitaxel-resistant human A549 cells xenografted in BALB/c nude mouse assessed as tumor growth inhibition at 20 mg/kg, po administered once daily and measured twice a week relative to control", "type": "functional", "conditions": "read-out: TGI"}, "DU-145 [12]": {"test_system": "DU-145", "assay": "Induction of G2/M phase cell cycle arrest in human DU-145 cells assessed as increase in histone H3 phosphorylation at Ser10 residue at 0.03 to 0.3 uM measured after 12 hrs by Western blot analysis", "type": "functional, cell-based", "conditions": "dose 0.03-0.3 µM"}, "[13]": {"assay": "Stability in mouse liver microsomes assessed as half life incubated in presence of NADPH by LC-MS/MS analysis", "type": "ADME, Microsome"}, "[14]": {"assay": "Clearance in Kunming mouse at 2 mg/kg, iv by LC-MS/MS analysis", "type": "ADME, organism-based", "conditions": "in vivo"}, "[15]": {"assay": "AUC (0 to t) in Kunming mouse at 20 mg/kg, po by LC-MS/MS analysis", "type": "ADME, organism-based", "set-up": "dose 20 mg/kg, route po", "conditions": "in vivo"}, "Tubulin (Homo sapiens) [16]": {"biological_target": "T1, Tubulin (Homo sapiens)", "assay": "Disruption of microtubule network in human DU-145 cells assessed as reduction in acetyl-alpha tubulin expression by Western blot analysis", "type": "cell-based", "conditions": "dose 0.03-0.3 µM"}, "[17]": {"assay": "Toxicity in specific pathogen-free Kunming mouse assessed as pathological changes in kidney at 10 mg/kg, po administered once daily and measured after 7 days by hematoxylin and eosin staining based analysis", "type": "organism-based", "conditions": "in vivo, 168 h, time 7 day"}, "B16-F10": {"test_system": "B16-F10", "assay": "Antitumor activity against mouse B16-F10 cells implanted in C57BL/6 mouse assessed as tumor growth inhibition at 20 mg/kg, po administered once daily and measured twice a week relative to control", "type": "functional", "conditions": "read-out: TGI"}, "DU-145 [18]": {"test_system": "DU-145", "assay": "Induction of apoptosis in human DU-145 cells assessed as late apoptotic cells at 0.3 uM incubated for 48 hrs by Annexin V-FITC/PI staining based flow cytometry analysis (reference value: 2.05%)", "type": "functional"}, "DU-145 [19]": {"test_system": "DU-145", "assay": "Induction of apoptosis in human DU-145 cells assessed as increase in cleaved caspase 3 level at 0.003 to 0.3 uM incubated for 48 hrs by Western blot analysis", "type": "functional, cell-based", "conditions": "dose 0.003-0.3 µM"}, "[20]": {"assay": "AUC (0 to t) in Kunming mouse at 2 mg/kg, iv by LC-MS/MS analysis", "type": "ADME, organism-based", "set-up": "dose 2 mg/kg, route iv", "conditions": "in vivo"}, "[21]": {"assay": "Half life in Kunming mouse at 2 mg/kg, iv by LC-MS/MS analysis", "type": "ADME, organism-based", "conditions": "in vivo"}, "DU-145 [22]": {"test_system": "DU-145", "assay": "Antiproliferative activity against human DU-145 cells assessed as inhibition of cell growth incubated for 24 hrs by real-time cell analysis", "type": "functional, cell-based", "conditions": "DU-145, 24 h"}, "A549 [23]": {"test_system": "A549", "assay": "cells", "conditions": "Homo sapiens, A549, 72 h"}, "[24]": {"assay": "Mutagenicity in Salmonella typhimurium TA-100 at 0.5 to 500 ug per plate incubated for 72 hrs in presence or absence of S9 fraction by Ames test", "type": "toxicity, Salmonella enterica subsp. enterica serovar Typhimurium", "conditions": "in vivo, dose 0.5-500 µg"}, "[25]": {"assay": "Toxicity in specific pathogen-free Kunming mouse assessed as pathological changes in liver at 10 mg/kg, po administered once daily and measured after 7 days by hematoxylin and eosin staining based analysis", "type": "organism-based", "conditions": "in vivo, 168 h, time 7 day"}, "DU-145 [26]": {"test_system": "DU-145", "assay": "Induction of apoptosis in human DU-145 cells assessed as early apoptotic cells at 0.1 uM incubated for 48 hrs by Annexin V-FITC/PI staining based flow cytometry analysis (reference value: 1.97%)", "type": "functional"}, "[27]": {"assay": "Toxicity in BALB/c nude mouse xenografted with human NCI-H1299 cells assessed as reduction in body weight at 10 to 20 mg/kg, po administered once daily and measured twice a week", "type": "organism-based", "conditions": "in vivo, dose 10-20 mg/kg"}, "DU-145 [28]": {"test_system": "DU-145", "assay": "Induction of apoptosis in human DU-145 cells assessed as dead cells at 0.1 uM incubated for 48 hrs by Annexin V-FITC/PI staining based flow cytometry analysis (reference value: 1.05%)", "type": "functional"}, "NCI-H1437": {"test_system": "NCI-H1437", "assay": "Antiproliferative activity against human NCI-H1437 cells assessed as inhibition of cell growth incubated for 72 hrs by MTT assay", "type": "functional, cell-based", "conditions": "NCI-H1437, 72 h"}, "Tubulin (Homo sapiens) [29]": {"biological_target": "T1, Tubulin (Homo sapiens)", "assay": "Disruption of microtubule network in human DU-145 cells assessed as reduction in alpha tubulin expression by Western blot analysis", "type": "cell-based", "conditions": "dose 0.03-0.3 µM"}, "HCT-8": {"test_system": "HCT-8", "assay": "Antiproliferative activity against human HCT-8 cells assessed as inhibition of cell growth incubated for 72 hrs by MTT assay", "type": "functional, cell-based", "conditions": "HCT-8, 72 h"}},
  "note": "Calls of active or inactive are those of the source. No cut-off for these calls is given here.",
  "data": [
    {"smiles": "Cc1ccc(S(=O)(=O)Nc2cc(C(=O)NCc3ccc(C)nc3)ccc2C)cc1", "values": [
      {"measurement": "half-life", "setting": "[1]", "value": 24, "unit": "min"},
      {"measurement": "IC50", "setting": "MDA-MB-231", "value": 9, "unit": "nM"},
      {"measurement": "half-life", "setting": "[2]", "value": 2.3, "unit": "min"},
      {"measurement": "Activity", "setting": "DU-145 [3]", "value": 26.61, "unit": "%"},
      {"measurement": "inhibition", "setting": "Tubulin (Homo sapiens) [4]", "value": 75, "unit": "%"},
      {"measurement": "IC50", "setting": "SW1990", "value": 15, "unit": "nM"},
      {"measurement": "IC50", "setting": "HepG2", "value": 3, "unit": "nM"},
      {"measurement": "IC50", "setting": "DU-145 [5]", "value": 10, "unit": "nM"},
      {"measurement": "bioavailability", "setting": "[6]", "value": 48.2, "unit": "%"},
      {"measurement": "Activity", "setting": "DU-145 [7]", "value": 26.3, "unit": "%"},
      {"measurement": "Activity", "setting": "[8]", "value": "Toxic"},
      {"measurement": "Activity", "setting": "Tubulin (Homo sapiens) [9]", "value": "Active"},
      {"measurement": "Activity", "setting": "DU-145 [10]", "value": "Active"},
      {"measurement": "IC50", "setting": "NCI-H1299", "value": 4, "unit": "nM"},
      {"measurement": "inhibition in vivo at 20 mg/kg", "setting": "A549 [11]", "value": 74.8, "unit": "%"},
      {"measurement": "Activity", "setting": "DU-145 [12]", "value": "Active"},
      {"measurement": "half-life", "setting": "[13]", "value": 26, "unit": "min"},
      {"measurement": "clearance", "setting": "[14]", "value": 61.5, "unit": "mL/min/kg"},
      {"measurement": "AUC(0-t)", "setting": "[15]", "value": 2580, "unit": "ng·h/mL"},
      {"measurement": "Activity", "setting": "Tubulin (Homo sapiens) [16]", "value": "Active"},
      {"measurement": "Activity", "setting": "[17]", "value": "Non-Toxic"},
      {"measurement": "inhibition in vivo at 20 mg/kg", "setting": "B16-F10", "value": 70.6, "unit": "%"},
      {"measurement": "Activity", "setting": "DU-145 [18]", "value": 30.32, "unit": "%"},
      {"measurement": "Activity", "setting": "DU-145 [19]", "value": "Active"},
      {"measurement": "AUC(0-t)", "setting": "[20]", "value": 534, "unit": "ng·h/mL"},
      {"measurement": "half-life", "setting": "[21]", "value": 10.8, "unit": "min"},
      {"measurement": "IC50", "setting": "DU-145 [22]", "value": 10, "unit": "nM"},
      {"measurement": "IC50", "setting": "A549 [23]", "value": 25, "unit": "nM"},
      {"measurement": "Activity", "setting": "[24]", "value": "Non-Toxic"},
      {"measurement": "Activity", "setting": "[25]", "value": "Non-Toxic"},
      {"measurement": "Activity", "setting": "DU-145 [26]", "value": 24.79, "unit": "%"},
      {"measurement": "Activity", "setting": "[27]", "value": "Toxic"},
      {"measurement": "Activity", "setting": "DU-145 [28]", "value": 5.08, "unit": "%"},
      {"measurement": "IC50", "setting": "NCI-H1437", "value": 2, "unit": "nM"},
      {"measurement": "Activity", "setting": "Tubulin (Homo sapiens) [29]", "value": "Active"},
      {"measurement": "IC50", "setting": "HCT-8", "value": 22, "unit": "nM"}
    ]}
  ]
}
